Key:
[1] = tested on: murine thymocyte; test: thymocyte proliferation stimulated by ConA and IL-1α; type: cell-based, murine (female Balb/C mice); conditions: ConA 0.25 μg/ml, IL-1α 12.5 ng/ml; drug 2 h prior
Protocol: (§1) A thymocyte costimulator assay is conducted to evaluate the inventive compounds to inhibit activation and proliferation of thymocytes caused by stimulation with Con A and interleukin-1 (IL-1), or […]. Thymuses are obtained from mice (e.g., female Balb/C mice) and the thymuses are removed and dissociated into culture media (e.g., RPMI 1640 without serum supplementation). The dissociated thymus tissue and cell suspension is transferred to centrifuge tubes and allowed to settle, washed with HBSS and resuspended in serum-supplemented culture media (e.g., RPMI 1640 with 10% fetal calf serum). Any contaminating red cells are lysed, and viable cells are resuspended and counted. Thymocytes are plated (e.g., 96-well plates at a density of 2×10^5 cells/well) and a stimulating agent, such as Con A, IL-1 (e.g., IL-1α) or IL-2 is added to the well. The cells are incubated for 4 days at 37° C. On the fourth day, the cells are pulsed with tritiated thymidine and cell proliferation determined. […]
1521 on inhibition of murine thymocyte proliferation stimulated by Concanavalin A (ConA) and interleukin-I alpha (IL-1α). Thymuses were obtained from normal, female Balb/C mice. The thymuses were dissociated and plated into 96-well plates at a density of 2×10^5 cells/well. […] The cells were harvested and incorporated tritiated thymidine was determined in a liquid scintillation counter. […]

[2] = tested on: murine thymocyte; test: thymocyte proliferation stimulated by ConA and IL-2; type: cell-based, murine (female Balb/C mice); conditions: IL-2 20 ng/ml; drug two hours prior; FIG. 4
Protocol: as §1
1522 on inhibition of thymocyte proliferation stimulated by ConA and interleukin-2 (IL-2) (20 ng/ml). Compound no. […]
Thymuses, obtained from normal, female Balb/C mice, were dissociated and plated into 96-well plates at a density of 2×10^5 cells/well. […] The amount of tritiated thymidine dye incorporated by the harvested cells was determined in a liquid scintillation counter. […]

[3] = tested on: P388D1 cells; test: TNF-α release from LPS-stimulated P388D1 cells; type: cell-based, murine; conditions: 0.25 mM, LPS 10 μg/ml
Protocol: (§2) This example illustrates the ability of compound no. 1521 to inhibit TNF-α release from P388D1 cells (a murine monocyte/macrophage line) when stimulated with LPS. This assay is a model for septic shock. P388D1 cells (10^5) were treated with LPS at 10 μg/ml in RPMI media containing 10% fetal calf serum. Supernatants were assayed for TNF by an ELISA technique at various times following LPS stimulation. The cells were treated one hour prior to LPS stimulation with 0.25 mM compound no. 1521.

[4] = tested on: P388D1 cells; test: IL-1α release from LPS-stimulated P388D1 cells; type: cell-based, murine; conditions: 0.25 mM, LPS 10 μg/ml
Protocol: as §2, with “of inventive” for “of”, “IL-1α” for “TNF-α”, “cells” for “cells (a murine monocyte/macrophage line)”, “IL-1α” for “TNF”, “mM of” for “mM”

[5] = tested on: L929 cells; test: TNF-α-mediated cytotoxicity in L929 cells; type: cell-based, murine; conditions: human TNF-α 300 pg/ml; FIG. 9
Protocol: An inventive compound can be assayed for activity protecting TNF-mediated cytotoxicity. In this assay, L929 murine fibroblast cells (10^4 cells per well) are incubated with either compounds at varying doses and media control for two hrs. […] The cells plus (or minus) drug plus TNF were incubated for 40 hrs at 37° C. The media is removed and replaced with fresh media containing 2% serum and 10 μg/ml of BCECF fluorescent dye and incubated for 30 min. The fluorescent dye-containing media is removed and replaced with PBS (phosphate buffered saline) and each well was assayed for fluorescence.
This assay is a model for septic shock. L929 cells (10^5) were treated with human TNF-α at 300 pg/ml in RPMI media containing 10% fetal calf serum with or without compound no. One day later, the cells were stained for viability using the fluorescent dye BCECF and fluorescence of the samples was analyzed using a Milipore plate reader.

[6] = tested on: U937 cells / activated human umbilical vein endothelial cells (HUVEC); test: adhesion of U937 cells to TNF-activated HUVEC; type: cell-based; conditions: human TNF 20 ng/ml, 12 hours
Protocol: Another assay measures the effects of drug to inhibit adhesion of U937 cells to TNF-activated HUVEC cells In this experiment, HUVEC cells are induced with human TNF-α (20 ng/ml) and drug at varying concentrations for 14-16 hrs. U937 cells (a human monocyte cell line) are incubated and labeled with BCECF (10 μg/ml), a fluorescent dye. The U937 cell preparation (2.5×10^4 cells per well) is layered on top of the activated HUVEC cells. The cells are reverse spun to remove partially adhering and nonadhering U937 cell. The adherent U937 cells are measured by fluorescence on a fluorescent plate reader.
1521 to inhibit adhesion of U937 cells to activated human umbilical vein endothelial cells (HUVEC). HUVEC cells were activated with 20 ng/ml of human TNF for 12 hours. Compound no. 1521 was added to samples one hour prior to adding TNF. U937 cells preloaded with a fluorescent dye were added to the HUVEC cells and adhesion measured after washing. Compound no. […] Background adhesion of U937 cells to non-activated HUVEC is shown as a dashed line.

SMILES: CON=C(C)CCCCn1c(=O)c2c(ncn2C)n(C)c1=O [Compound no. 1522]
- inhibition of thymocyte proliferation, ConA + IL-1α [1]: inhibited thymocyte proliferation
- inhibition of thymocyte proliferation, ConA + IL-2 [2]: inhibited thymocyte proliferation at the higher doses tested

SMILES: CC(CCCCn1c(=O)c2c(ncn2C)n(C)c1=O)=NO [Compound no. 1521]
- inhibition of thymocyte proliferation, ConA + IL-1α [1]: inhibited thymocyte proliferation in a dose-response manner
- inhibition of TNF-α release [3]: inhibited TNF release
- inhibition of IL-1α release [4]: inhibited IL-1α release
- protection of L929 cells from TNF-induced cytotoxicity [5]: inhibited TNF-induced cytotoxicity in a dose dependent manner
- adhesion of U937 cells to activated HUVEC [6]: reduced adhesion

From patent publication US5770595A, “Oxime substituted therapeutic compounds” (Cell Therapeutics, Inc., priority 1994, dated 1998)
